Laboratory results published in ChEMBL document CHEMBL1152874, “Synthesis of sulfonyl curcumin mimics exerting a vasodilatation effect on the basilar artery of rabbits” (Bioorg Med Chem Lett, 2009).

Assay: Vasodilation activity against depolarization-induced contraction in anaesthetized white rabbit basilar artery at 10 uM
Assay type: functional, tissue-based
Settings: Oryctolagus cuniculus

Row | SMILES | Activity
1 | COc1cc(/C=C/C(=O)c2cccc(NC(=O)c3cccs3)c2)ccc1O | 27.1%
2 | CCCS(=O)(=O)Nc1cccc(C(=O)/C=C/c2ccc(O)c(OC)c2)c1 | 42.3%
3 | COc1cc(/C=C/C(=O)c2cccc(NS(=O)(=O)c3cc(Cl)cc(Cl)c3)c2)ccc1O | 37.3%
4 | COc1cc(/C=C/C(=O)c2cccc(NS(=O)(=O)c3ccc(F)cc3)c2)ccc1O | 71.8%
5 | COc1cc(/C=C/C(=O)c2cccc(NC(=O)C(C)C)c2)ccc1O | 22.5%
6 | COc1cc(/C=C/C(=O)c2cccc(NS(=O)(=O)c3ccc(Cl)cc3)c2)ccc1O | 93.4%
7 | COc1cc(/C=C/C(=O)c2cccc(N)c2)ccc1O | 8.3%
8 | COc1cc(/C=C/C(=O)c2cccc(NS(C)(=O)=O)c2)ccc1O | 4.2%
9 | COc1cc(/C=C/C(=O)c2cccc(NS(=O)(=O)c3ccc(Cl)cc3Cl)c2)ccc1O | 4.2%
10 | COc1cc(/C=C/C(=O)c2cccc(NS(=O)(=O)c3ccccc3)c2)ccc1O | 40.4%
11 | COc1cc(/C=C/C(=O)c2cccc(NC(=O)c3ccco3)c2)ccc1O | 41.7%
12 | COc1cc(/C=C/C(=O)c2cccc(NS(=O)(=O)c3ccc(C(F)(F)F)cc3)c2)ccc1O | 65.8%
13 | COc1cc(/C=C/C(=O)CC(=O)/C=C/c2ccc(O)c(OC)c2)ccc1O [CURCUMIN] | 58.4%
14 | CCCC(=O)Nc1cccc(C(=O)/C=C/c2ccc(O)c(OC)c2)c1 | 32.3%
15 | COc1ccc(S(=O)(=O)Nc2cccc(C(=O)/C=C/c3ccc(O)c(OC)c3)c2)cc1 | 26.4%
16 | COc1cc(/C=C/C(=O)c2cccc(NC(=O)c3ccc(Cl)cc3Cl)c2)ccc1O | 27.9%
17 | COc1cc(/C=C/C(=O)c2cccc(NS(=O)(=O)c3ccc(OC(F)(F)F)cc3)c2)ccc1O | 76.7%
18 | COc1cc(/C=C/C(=O)c2cccc(NS(=O)(=O)c3cccc(C(F)(F)F)c3)c2)ccc1O | 52.3%
19 | COc1cc(/C=C/C(=O)c2cccc(NS(=O)(=O)c3cccs3)c2)ccc1O | 36.1%
20 | COc1cc(/C=C/C(=O)c2cccc(NS(=O)(=O)c3ccc(Cl)c(Cl)c3)c2)ccc1O | 30.2%
21 | COc1cc(/C=C/C(=O)c2cccc(NS(=O)(=O)C(C)C)c2)ccc1O | 8.4%
22 | COc1cc(/C=C/C(=O)c2cccc(NS(=O)(=O)c3c(Cl)cccc3Cl)c2)ccc1O | 99.4%
23 | COc1cc(/C=C/C(=O)c2cccc(NC(C)=O)c2)ccc1O | 20.6%

Assay: Vasodilation activity against depolarization-induced contraction in anaesthetized white rabbit basilar artery
Assay type: functional, tissue-based, Oryctolagus cuniculus
Settings: not given

Row | EC50 | SMILES
24 | 5.58 µM | COc1cc(/C=C/C(=O)c2cccc(NS(=O)(=O)c3ccc(Cl)cc3)c2)ccc1O
25 | 7.48 µM | COc1cc(/C=C/C(=O)CC(=O)/C=C/c2ccc(O)c(OC)c2)ccc1O [CURCUMIN]
26 | 2.78 µM | COc1cc(/C=C/C(=O)c2cccc(NS(=O)(=O)c3c(Cl)cccc3Cl)c2)ccc1O
